Source: ChEMBL document CHEMBL1201862, “PubChem BioAssay data set” (2004)
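In this assay, cells in 96-well plates receive the compound at five concentrations for 48 hours. Endpoints are linearly interpolated between the surrounding concentrations. GI50: concentration for 50% inhibition of growth.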 Activity calls are given as the source filed them. Cut-off read from the data, not from the text of the source: active = GI50 up to about 1.1 µM and inactive = higher.

Assays:
Assay in all cases: DTP human tumour cell line panel, 48 h
Malme-3M = system: Malme-3M
U-251 = system: U-251
OVCAR-8 = system: OVCAR-8
SW-620 = system: SW-620
786-0 = system: 786-0
HCC 2998 = system: HCC 2998
PC-3 = system: PC-3
NCI-H460 = system: NCI-H460
BT-549 = system: BT-549
Hs-578T = system: Hs-578T
HCT-116 = system: HCT-116
HOP-62 = system: HOP-62
MCF7 = system: MCF7
SNB-75 = system: SNB-75
NCI-H226 = system: NCI-H226
OVCAR-5 = system: OVCAR-5
SK-MEL-2 = system: SK-MEL-2
HL-60 = system: HL-60
SF-295 = system: SF-295
M14 = system: M14

Row | SMILES | GI50 (Malme-3M) | GI50 (U-251) | GI50 (OVCAR-8) | GI50 (SW-620) | GI50 (786-0) | GI50 (HCC 2998) | GI50 (PC-3) | GI50 (NCI-H460) | GI50 (BT-549) | GI50 (Hs-578T) | GI50 (HCT-116) | GI50 (HOP-62) | GI50 (MCF7) | GI50 (SNB-75) | GI50 (NCI-H226) | GI50 (OVCAR-5) | GI50 (SK-MEL-2) | GI50 (HL-60) | GI50 (SF-295) | GI50 (M14)
1 | O=[N+]([O-])c1c(F)c(F)c2c(c1F)N(CCCCCl)c1ccccc1S2 | 16.6 µM (inactive) | 12.7 µM (inactive) | 3.16 µM (inactive) | 4.05 µM (inactive) | 9.02 µM (inactive) | 2.86 µM (inactive) | 6.05 µM (inactive) | 5.01 µM (inactive) | 14.6 µM (inactive) | 24.8 µM (inactive) | 5.05 µM (inactive) | 14.3 µM (inactive) | 3.61 µM (inactive) | 6.46 µM (inactive) | 17.7 µM (inactive) | 18.8 µM (inactive) | 3.63 µM (inactive) | 2.44 µM (inactive) | 16.6 µM (inactive) | 4.83 µM (inactive)
2 | CC1(C)OCC(C2OC3OC(C)(C)OC3C2N)O1 (stereo not given) | > 100 µM (inactive) | > 100 µM (inactive) | > 100 µM (inactive) | > 100 µM (inactive) | > 100 µM (inactive) | > 100 µM (inactive) | > 100 µM (inactive) | > 100 µM (inactive) | > 100 µM (inactive) | > 100 µM (inactive) | > 100 µM (inactive) | > 100 µM (inactive) | > 100 µM (inactive) | > 100 µM (inactive) | > 100 µM (inactive) | > 100 µM (inactive) | > 100 µM (inactive) | > 100 µM (inactive) | > 100 µM (inactive) | > 100 µM (inactive)
3 | O=C(O)C(F)(OC(F)(F)C(F)(OC(F)(F)C(F)(F)C(F)(F)F)C(F)(F)F)C(F)(F)F (stereo not given) | > 100 µM (inactive) | > 100 µM (inactive) | > 100 µM (inactive) | > 100 µM (inactive) | > 100 µM (inactive) | > 100 µM (inactive) | 59.7 µM (inactive) | > 100 µM (inactive) | > 100 µM (inactive) | > 100 µM (inactive) | > 100 µM (inactive) | > 100 µM (inactive) | > 100 µM (inactive) | > 100 µM (inactive) | > 100 µM (inactive) | > 100 µM (inactive) | > 100 µM (inactive) | > 100 µM (inactive) | > 100 µM (inactive) | > 100 µM (inactive)
4 | COc1cc(OC)c2c(=O)c(OC)c(-c3ccc4c(c3)OCO4)oc2c1 | > 100 µM (inactive) | 16.6 µM (inactive) | 28.6 µM (inactive) | > 100 µM (inactive) | 36 µM (inactive) | > 100 µM (inactive) | 84.7 µM (inactive) | > 100 µM (inactive) | 71.1 µM (inactive) | 35.1 µM (inactive) | 44.4 µM (inactive) | 23.5 µM (inactive) | > 100 µM (inactive) | 15.9 µM (inactive) | 46.3 µM (inactive) | > 100 µM (inactive) | 19.1 µM (inactive) | 20.9 µM (inactive) | 22.2 µM (inactive) | > 100 µM (inactive)
5 | O=C1Nc2c(Cl)cc(Cl)cc2/C1=N/N=C/c1ccccc1O | 27.9 µM (inactive) | 17.2 µM (inactive) | 21.4 µM (inactive) | 22 µM (inactive) | 19.4 µM (inactive) | 17.9 µM (inactive) | 19.5 µM (inactive) | 14.7 µM (inactive) | 15.1 µM (inactive) | 26.5 µM (inactive) | 17.5 µM (inactive) | 17.2 µM (inactive) | 30 µM (inactive) | 23.5 µM (inactive) | 27.2 µM (inactive) | 21.5 µM (inactive) | 19.5 µM (inactive) | 21.1 µM (inactive) | 22.5 µM (inactive) | 23.1 µM (inactive)
6 | NCC1CCN(c2nc3ccccc3c3c2CCCC3)CC1 | 13.2 µM (inactive) | 5.35 µM (inactive) | 17.2 µM (inactive) | 2.86 µM (inactive) | 4.23 µM (inactive) | 1.9 µM (inactive) | 8.93 µM (inactive) | 5.06 µM (inactive) | 14.2 µM (inactive) | 20.1 µM (inactive) | 3.07 µM (inactive) | 14.7 µM (inactive) | 4.86 µM (inactive) | 4.21 µM (inactive) | 16.7 µM (inactive) | 11.9 µM (inactive) | 5.73 µM (inactive) | 2.84 µM (inactive) | 12.9 µM (inactive) | 1.92 µM (inactive)
7 | CC(=O)[C@@]1(O)CC[C@H]2[C@@H]3C[C@H](C)C4=CC(=O)CC[C@]4(C)[C@H]3[C@@H](O)C[C@@]21C | > 100 µM (inactive) | > 100 µM (inactive) | > 100 µM (inactive) | > 100 µM (inactive) | > 100 µM (inactive) | > 100 µM (inactive) | > 100 µM (inactive) | > 100 µM (inactive) | > 100 µM (inactive) | 68.1 µM (inactive) | > 100 µM (inactive) | > 100 µM (inactive) | > 100 µM (inactive) | > 100 µM (inactive) | > 100 µM (inactive) | > 100 µM (inactive) | > 100 µM (inactive) | > 100 µM (inactive) | > 100 µM (inactive) | > 100 µM (inactive)
8 | CCOC(=O)c1cn(CC)c2ccc3ccsc3c2c1=O | > 100 µM (inactive) | 5.46 µM (inactive) | > 100 µM (inactive) | > 100 µM (inactive) | > 100 µM (inactive) | > 100 µM (inactive) | > 100 µM (inactive) | > 100 µM (inactive) | > 100 µM (inactive) | > 100 µM (inactive) | > 100 µM (inactive) | > 100 µM (inactive) | > 100 µM (inactive) | 69.5 µM (inactive) | > 100 µM (inactive) | > 100 µM (inactive) | 75.2 µM (inactive) | > 100 µM (inactive) | > 100 µM (inactive) | > 100 µM (inactive)
9 | O=C(Nc1nc2ccccc2s1)c1cc([N+](=O)[O-])ccc1Cl | 23.7 µM (inactive) | 6.43 µM (inactive) | 5 µM (inactive) | 6.14 µM (inactive) | 11.1 µM (inactive) | 12.6 µM (inactive) | 7.24 µM (inactive) | 1.91 µM (inactive) | 5.92 µM (inactive) | 2.88 µM (inactive) | 3.87 µM (inactive) | 13.6 µM (inactive) | 0.91 µM (active) | 13.8 µM (inactive) | 16.9 µM (inactive) | 23 µM (inactive) | 13.2 µM (inactive) | 1.78 µM (inactive) | 22.3 µM (inactive) | 8.97 µM (inactive)
10 | CN(C)c1n2c3cc([N+](=O)[O-])ccc3[n+]3c(N(C)C)n4ccccc4c3c2c2cccc[n+]12.[O-][Cl+3]([O-])([O-])[O-].[O-][Cl+3]([O-])([O-])[O-] | > 100 µM (inactive) | 51.1 µM (inactive) | > 100 µM (inactive) | > 100 µM (inactive) | > 100 µM (inactive) | > 100 µM (inactive) | > 100 µM (inactive) | > 100 µM (inactive) | > 100 µM (inactive) | 29.9 µM (inactive) | > 100 µM (inactive) | > 100 µM (inactive) | 8.57 µM (inactive) | > 100 µM (inactive) | > 100 µM (inactive) | > 100 µM (inactive) | > 100 µM (inactive) | > 100 µM (inactive) | > 100 µM (inactive) | > 100 µM (inactive)
11 | Cc1cc(S(=O)(=O)Nc2nc(Nc3ccc(Cl)cc3)n[nH]2)c(S)cc1Cl | > 100 µM (inactive) | 27.9 µM (inactive) | > 100 µM (inactive) | > 100 µM (inactive) | > 100 µM (inactive) | > 100 µM (inactive) | > 100 µM (inactive) | 86.9 µM (inactive) | > 100 µM (inactive) | 86.5 µM (inactive) | > 100 µM (inactive) | 52.5 µM (inactive) | > 100 µM (inactive) | > 100 µM (inactive) | > 100 µM (inactive) | > 100 µM (inactive) | > 100 µM (inactive) | > 100 µM (inactive) | 91.2 µM (inactive) | 59.6 µM (inactive)
12 | O=C1Nc2ccccc2C1=Nc1ccc(S(=O)(=O)Nc2nccs2)cc1 | > 100 µM (inactive) | > 100 µM (inactive) | > 100 µM (inactive) | > 100 µM (inactive) | > 100 µM (inactive) | > 100 µM (inactive) | > 100 µM (inactive) | > 100 µM (inactive) | > 100 µM (inactive) | > 100 µM (inactive) | > 100 µM (inactive) | > 100 µM (inactive) | > 100 µM (inactive) | > 100 µM (inactive) | > 100 µM (inactive) | > 100 µM (inactive) | > 100 µM (inactive) | > 100 µM (inactive) | > 100 µM (inactive) | > 100 µM (inactive)
13 | CC(=O)Nc1ccc(CNc2cc(=O)n(C)c(=O)[nH]2)cc1 | > 100 µM (inactive) | > 100 µM (inactive) | > 100 µM (inactive) | > 100 µM (inactive) | > 100 µM (inactive) | > 100 µM (inactive) | > 100 µM (inactive) | > 100 µM (inactive) | > 100 µM (inactive) | > 100 µM (inactive) | > 100 µM (inactive) | > 100 µM (inactive) | > 100 µM (inactive) | > 100 µM (inactive) | > 100 µM (inactive) | > 100 µM (inactive) | > 100 µM (inactive) | > 100 µM (inactive) | > 100 µM (inactive) | > 100 µM (inactive)
14 | COC(=O)CCc1cc(OC)c2c(c1)[C@H](C(=O)OC)[C@@H](c1ccc(O)c(OC)c1)O2 | 29.9 µM (inactive) | 38.4 µM (inactive) | 78.2 µM (inactive) | 47.4 µM (inactive) | 46.3 µM (inactive) | 21.4 µM (inactive) | 91.8 µM (inactive) | 37.8 µM (inactive) | 44.8 µM (inactive) | 38.4 µM (inactive) | 35.5 µM (inactive) | 77.1 µM (inactive) | 49.2 µM (inactive) | 43.3 µM (inactive) | > 100 µM (inactive) | > 100 µM (inactive) | 33.1 µM (inactive) | 15.5 µM (inactive) | 47.1 µM (inactive) | 38.3 µM (inactive)
